Test results from patent US6534498B1, “Protease inhibitors” (SmithKline Beecham Corporation, priority 1999, dated 2003).

Tests used:
[1] = target: T1, cathepsin K (Homo sapiens, UniProt P43235); assay: Determination of cathepsin K proteolytic catalytic activity / inhibition studies (progress curve method, Cbz-Phe-Arg-AMC); assay type: biochemical; conditions: human recombinant enzyme, 100 mM Na acetate pH 5.5, 20 μM substrate, 10% DMSO
T1 sequence (P43235 115-329): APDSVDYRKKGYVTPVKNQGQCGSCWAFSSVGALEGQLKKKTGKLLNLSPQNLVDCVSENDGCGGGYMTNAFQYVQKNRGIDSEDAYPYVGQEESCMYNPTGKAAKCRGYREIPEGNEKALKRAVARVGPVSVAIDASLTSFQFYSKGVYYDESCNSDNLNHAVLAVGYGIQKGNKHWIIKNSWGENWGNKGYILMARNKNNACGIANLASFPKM
Procedure: Determination of Cathepsin K Proteolytic Catalytic Activity
All assays for cathepsin K were carried out with human recombinant enzyme. Standard assay conditions for the determination of kinetic constants used a fluorogenic peptide substrate, typically Cbz-Phe-Arg-AMC, and were determined in 100 mM Na acetate at pH 5.5 containing 20 mM cysteine and 5 mM EDTA. Stock substrate solutions were prepared at concentrations of 10 or 20 mM in DMSO with 20 μM final substrate concentration in the assays. All assays contained 10% DMSO. […] All assays were conducted at ambient temperature. Product fluorescence (excitation at 360 nm; emission at 460 nm) was monitored with a Perceptive Biosystems Cytofluor II fluorescent plate reader. […]
Potential inhibitors were evaluated using the progress curve method. […] For those compounds whose progress curves were linear, apparent inhibition constants (Ki,app) were calculated according to equation 1 (Brandt et al., Biochemitsry, 1989, 28, 140): […]
[AMC]=vsst+(v0−vss)[[…]]/kobs (2) where [AMC] is the concentration of product formed over time t, v0 is the initial reaction velocity, and vss is the final steady state rate. Values for kobs were then analyzed as a linear function of inhibitor concentration to generate an apparent second order rate constant (kobs/inhibitor concentration or kobs/[I]) describing the time-dependent inhibition. […]

[2] = system: osteoclasts (osteoclastoma-derived cell suspensions); assay: Human osteoclast resorption assay (pit assay on dentine slices); assay type: cell-based; conditions: 48 hours, pit volumes
Procedure: Human Osteoclast Resorption Assay
Aliquots of osteoclastoma-derived cell suspensions were removed from liquid nitrogen storage, warmed rapidly at 37° C. and washed ×1 in RPMI-1640 medium by centrifugation (1000 rpm, 5 min at 4° C.). The medium was aspirated and replaced with murine anti-HLA-DR antibody, diluted 1:3 in RPMI-1640 medium, and incubated for 30 minutes on ice. The cell suspension was mixed frequently.
The cells were washed ×2 with cold RPMI-1640 by centrifugation (1000 rpm, 5 min at 4° C.) and then transferred to a sterile 15 mL centrifuge tube. The number of mononuclear cells were enumerated in an improved Neubauer counting chamber.
Sufficient magnetic beads (5/mononuclear cell), coated with goat anti-mouse IgG, were removed from their stock bottle and placed into 5 mL of fresh medium (this washes away the toxic azide preservative). The medium was removed by immobilizing the beads on a magnet and is replaced with fresh medium.
The beads were mixed with the cells and the suspension was incubated for 30 minutes on ice. The suspension was mixed frequently. […]
The TRAP positive osteoclasts were enumerated by bright-field microscopy and were then removed from the surface of the dentine by sonication. Pit volumes were determined using the Nikon/Lasertec ILM21W confocal microscope.

Q: Which results are given for `CC(C)C[C@H](NC(=O)c1ccc2ccccc2n1)C(=O)NC1CCCN(S(=O)(=O)c2cccc[n+]2[O-])CC1=O` (stereo partly drawn) [Example 1, Quinoline-2-carboxylic acid {(S)-3-methyl-1-[3-oxo-1-(1-oxy-pyridine-2-sulfonyl)-azepan-4-ylcarbamoyl]-butyl}amide]?
A: Ki [1]: 0.41 nM; IC50 [2]: 300 nM
